Results on three compounds are retold here after US20060173069A1, “Therapeutic agent for hyperpotassemia and bone disease” (RIKEN, priority 2003, published 2006).

Assay [1] has as its system bone resorption due to parathyroid hormone (PTH). Put plainly: Serum calcium in TPTX rats with hypercalcemia by continuous PTH infusion. It counts as in vivo, SD rats. As to conditions: for increase in the level of serum calcium due to PTH: 80 mg/kg, TPTX SD rats, administered 12 hours after start of PTH, followed 24 hours; for duration of inhibitory action on bone resorption: comparison of calcitonin with reveromycin A derivatives. As to the method: The bone resorption inhibitory effects of the reveromycin A derivatives were examined by measuring the level of serum calcium released in the blood by the action of bone resorption. SD rats were subjected to an operation of extracting the thyroid glands and the parathyroid glands (TPTX). Next day, a decrease in serum calcium was confirmed and then the continuous infusion of the parathyroid hormone (PTH) was carried out, thereby creating rats each having hypercalcemia by accelerating the bone resorption.
At 12 hours from the initiation of PTH injection, the reveromycin A derivatives ([…]) or a sodium salt thereof ([…]) were administered and the level of serum calcium was then measured in time-course for 24 hours.

Another assay relates to mature osteoclasts. Briefly: Cell-death (apoptosis) inducing activity on mature osteoclasts, number of TRAP-stained multinuclear cells. It counts as cell-based, mouse. As to conditions: for EC50: Mus musculus, Osteoclast, RAW264-derived mature osteoclasts, 24 hours incubation, TRAP staining, read-out: ED50 level of cell-death inducing activity to mature osteoclasts, Number of cells; for selective apoptosis inducing effect on the mature osteoclasts: in words. Here is the method: Using 29 different reveromycin A derivatives synthesized as described above, the cell-death inducing activities on the mature osteoclasts and undifferentiated macrophage-like cells derived from a mouse (RAW264 cells) were examined, respectively. The RAW264 cells, a mouse-macrophage cell line, were suspended in a 10% FBS-αMEM (manufactured by Gibco BRL Co., Ltd.) and then 12,000 cells/100 μl were inoculated in a 96-well plate. After 1-hour incubation, 100 μl of a culture medium containing RANKL ([…]) and PD98059 (40 μM) were added (final concentration: RANKL […] and PD98059 20 μM) and then incubated for 4 days to allow the differentiation of the cells to mature osteoclasts (J. Biol. Chem. Vol. 277, pp. 47366-47372 (2002)). Furthermore, on the second day of the culture, the half of the culture medium was replaced with new one. From each well of the plate where the cells were differentiated to the mature osteoclasts, 100 μl/well of the culture medium was removed. […] The apoptosis inducing activity was confirmed by the observation of agglutination of nuclei stained with 10 μM Hoechst 33258 for 10-minututes.

Assay [2] has as its system anterior limb long bone, bone resorption induced by PTH, IL-1 or vitamin D3. Put plainly: Inhibition of 45Ca liberation (bone resorption activity) from cultured fetal long bone. As to conditions: 72 hours culture; for inhibition of bone resorption induced by the PTH: 10^−8M, 10^−7M and 10^−6M, PTH 10^−8M; for inhibition of bone resorption due to vitamin D3 or IL-1: IL-1 0.3 ng/ml, vitamin D3 10^−8M. It counts as cell-based, rat. As to the method:
The effects of the reveromycin A derivatives on the facilitation of the bone resorption due to the parathyroid hormone (PTH) were measured.
A19-day pregnant rat was subjected to the hypodermic injection of [^45Ca]CaCl2 to label a fetal bone. After 24 hours, the anterior limb long bone was extracted. For an anterior limb long bone, a Dulbecco-modified Eagle medium (DMEM) containing 15% heat-inactivated horse serum and 100 U/ml penicillin was used as a culture medium and then incubated for 72 hours together with a bone resorption factor (PTH 10^−8M, IL-1 0.3 ng/ml, vitamin D3 10^−8M) and the reveromycin A derivatives. After incubation, ^45Ca radioactivities in a solution into which calcium of the bone was eluted by 0.1 N HCl and in the culture solution were measured using a liquid scintillation counter. The ratio of the amount of calcium released into the culture solution to the total amount of calcium (bone resorption activity (%)) was used as an indicator and the effects of the reveromycin A derivatives on the facilitation of the bone resorption due to the PTH was investigated. • Bone resorption activity (%)=100×Amount of ^45Ca released into culture solution/(Amount of ^45Ca released into culture solution+Amount of ^45Ca left in bone)

Assay [3] concerns undifferentiated RAW264 cells. Put plainly: Cell-death inducing activity on undifferentiated RAW264 cells, MTT method. The assay is classed as cell-based, mouse. As to conditions: for CC50: Mus musculus, RAW264.7, 24 hours incubation, MTT, read-out: ED50 level of cell-death inducing activity to undifferentiated RAW264 cells, MTT; for growth inhibitory action on the osteoclast precursor cells RAW264: even at a comparatively high concentration. As to the method:
The cell-death inducing activities to the undifferentiated RAW264 cells were investigated by the MTT method (J. Immunol. Methods, Vol. 65, pp 55-63 (1983). The RAW 264 cells were plated on a 96-well plate at a density of 40,000 cells/100 μl and then incubated for 24 hours. After the 24-hour incubation, 50 μl of a culture medium containing a three-fold concentration of the drug was added and then incubated for 24 hours to investigate the cell-death inducing activity. Two hours before the measurement of the cell-death inducing activity, 15 μl of 0.5% MTT-PBS (phosphate buffer saline) was added and incubated. After that, the residue from which the culture solution was removed was dissolved in 100 μl of DMSO (dimethyl sulfoxide) and the absorbance at 570 nm (a reference wave length of 630 nm) was measured, followed by calculating the ED50 level of the cell-death inducing activity.

Positions of bridges follow the written chain, without caps; N, C: chain ends. No end group written: not given here.

As for `CCCC[C@@]1(OC(=O)CCC(=O)O)CC[C@]2(CC[C@H](C)[C@@H](C/C=C(C)/C=C/[C@H](O[Si](C)(C)C(C)(C)C)[C@@H](C)/C=C/C(=O)O)O2)O[C@H]1/C=C/C(C)=C/C(=O)O` [Compound 2, C5-silylether], in assay [1], the “increase in the level of serum calcium due to PTH” value is “significant suppression” and the “duration of inhibitory action on bone resorption” value (from here on “duration of inhibitory action”) is listed as “prolonged inhibitory action on bone resorption”. In addition, in the assay with mature osteoclasts, the EC50 turned out to be 6.6 µM and the “selective apoptosis inducing effect on the mature osteoclasts” value is “showed a selective apoptosis inducing effect”. Also, in assay [2], the “inhibition of bone resorption induced by the PTH” value was “inhibited the bone resorption induced by the PTH at 10^−8M, 10^−7M, and 10^−6M, in a concentration-dependent manner”; the “inhibition of bone resorption due to vitamin D3 or IL-1” value is reported as “could be also inhibited”. Moreover, in assay [3], the CC50 amounted to 89 µM and the “growth inhibitory action on the osteoclast precursor cells RAW264” value is given as “do not show any growth inhibitory action”.

Turning to `CCCC[C@@]1(OC(=O)CCC(=O)O)CC[C@]2(CC[C@H](C)[C@@H](C/C=C(C)/C=C/[C@H](OC(C)=O)[C@@H](C)/C=C/C(=O)O)O2)O[C@H]1/C=C/C(C)=C/C(=O)O` [Compound 27, C5-acetate], in assay [1], the “increase in the level of serum calcium due to PTH” value is reported as “significant suppression” and the “duration of inhibitory action” value was “prolonged inhibitory action on bone resorption”. Moreover, in the assay with mature osteoclasts, the EC50 came out at 1.3 µM and the “selective apoptosis inducing effect on the mature osteoclasts” value is “showed a selective apoptosis inducing effect”. In assay [2], the “inhibition of bone resorption induced by the PTH” value was “inhibited the bone resorption induced by the PTH at 10^−8M, 10^−7M, and 10^−6M, in a concentration-dependent manner”; the “inhibition of bone resorption due to vitamin D3 or IL-1” value was “could be also inhibited”. In assay [3], the CC50 worked out at 49 µM and the “growth inhibitory action on the osteoclast precursor cells RAW264” value is given as “do not show any growth inhibitory action”.

Consider “calcitonin (CGNLSTCMLGTYTQDFNKFHTFPQTAIGVGAP-NH2; disulfide 1-7; ends not checked; UniProt P01258 85-116, looked up) [reference compound]”, for which the “duration of inhibitory action” value in assay [1] is reported as “shorter inhibitory action on bone resorption”.
